From patent US20200078290A1, “Cosmetic Composition Comprising Extract Of Medicinal Herbs As Active Ingredient” (LG Household & Health Care Ltd., priority 2016, published 2020)

Assays:
[1] = system: RAW264.7 cell line; assay: Inhibition of NO production in LPS-stimulated RAW264.7 cells (GRIESS method); assay type: cell-based, mice; conditions: positive control, 10 ppm, RAW264.7, LPS
Experimental: In order to confirm the anti-inflammatory effect and the skin trouble-improving effect of the seven extracts obtained in Preparation Example 1, an experiment on the inhibition of nitrogen monoxide (NO) formation was conducted by the GRIESS method using RAW264.7 cell line (ATCC number: CRL-2278).
Specifically, RAW264.7 cells, which were macrophages of mice, were subcultured several times, and the cultured cells were put into a 24-well plate at a density of 3×10^5 […], and cultured for 24 hours. Subsequently, the cells were replaced with cell culture media containing the above-mentioned 7 kinds of extracts diluted to concentrations of […]. […] 100 μL of the supernatant was collected and transferred to a 96-well plate, and 100 μL of GRIESS solution was added thereto and reacted at room temperature for 10 minutes, and then the absorbance at 540 nm was measured to determine the NO inhibitory effect of the extracts. The NO production inhibition rate (%) was calculated using the following Calculation Equation 2, and the results are shown in Table 6. The experiments were each carried out three times, and the results are expressed as an average value.
Inhibition Rate of NO Production (%)={(Absorbance of negative control−Absorbance of each extract)/Absorbance of negative control}×100 [Calculation Equation 2]

[2] = system: human-derived fibroblasts; assay: Promotion of type 1 collagen synthesis in human fibroblasts (PICP EIA kit); assay type: cell-based; conditions: positive control, 52.85 ppm
Experimental: Seven kinds of extracts obtained in Preparation Example 1 were added to culture media of human-derived fibroblasts in order to confirm the effect of promoting type I collagen synthesis at the cellular level. The synthesized collagen was measured and quantitated using a PICP EIA kit (Procollagen Type I C-Peptide Enzyme Immuno Assay Kit). In order to measure the amount of synthesized collagen, the extracts of Examples 1 to 7 were added to the culture media (DMEM medium) of the fibroblasts at final concentrations of 1,000 ppm and 10,000 ppm, and cultured for 48 hours. The culture broth was collected and the degree of type 1 collagen synthesis was measured with a PICP EIA kit at 450 nm using a spectrophotometer. For the comparison of the effects, the degree of collagen synthesis was measured in the same manner for the culture medium of the fibroblasts not treated with the extract (negative control) and the culture medium (positive control) in which vitamin C was added to a final concentration of 52.85 ppm. The rate of increase in collagen production was calculated as a ratio of collagen production relative to negative control, and the results are shown in Table 3 below. The experiments were conducted four times and the results are expressed as an average value.

Compound	Inhibition Rate of NO Production [1] [%]	Increased rate (collagen production relative to negative control) [2] [%]	Production amount of type 1 collagen ([2]; average of 4) [ng/mL]
CNC(=N)NCCC[C@H](N)C(=O)O [L-NMMA, L-NG-monomethylarginine]	41.0		
O=C1O[C@H]([C@@H](O)CO)C(O)=C1O [Vitamin C, vitamin C]		64.3	246.8
